# From patent US10449162B2, “Delivery of drug nanoparticles and methods of use thereof” (DFB Soria, LLC, priority 2015, dated 2019)
# Like-named read-outs stand apart in the source and are kept apart here.
# Columns and labels:
# [1] = Specific surface area (BET isotherm); type: physicochemical; conditions: lots used in the formulas
# Procedure: (§1) As used herein, the “specific surface area (SSA)” is the total surface area of the taxane nanoparticle per unit of taxane mass as measured by the Brunauer-Emmett-Teller (“BET”) isotherm by the following method: a known mass between 200 and 300 mg of the analyte is added to a 30 mL sample tube. […] The automated test is then carried out using the BETWIN® software package and the surface area of each sample is subsequently calculated. The bulk density measurement can be conducted by pouring the taxane nanoparticles into a graduated cylinder without tapping at room temperature, measuring the mass and volume, and calculating the bulk density.
# [2] = Particle size of paclitaxel nanoparticles lots (ACCUSIZER 780); type: physicochemical; conditions: number-weighted differential distribution; nanoparticle API lot
# Procedure: Max. Concentration: 9000 particles/mL, No. containers: 1, Sensor Range: Summation, Lower Detection Limit: 0.5 μm, Flow Rate: 30 mL/min, No. Analysis pulls: 4, Time between pulls: 1 sec, Pull volume: 10 mL, Tare Volume: 1 mL, Prime volume: 1 mL, Include First Pull: Not Selected.
# Vortexed for 5-10 minutes and sonicated in a water batch for 1 minute.
# Filled a plastic bottle with filtered (0.22 μm) 0.1% w/w SDS solution and analyzed the Background.
# [3] = Bulk density (not tapped); type: physicochemical; conditions: lots used in the formulas
# Procedure: as §1
# [4] = Observation of paclitaxel nanoparticle crystals in various substances and solutions (light microscopy); type: physicochemical
# skin inflammation models = conditions: topical treatment; nonclinical evaluations; cited from earlier work
# [5] = Solubility of paclitaxel in various solvents (HPLC); type: physicochemical
# Procedure: For each solvent, about 2 g of the solvent was weighed into a clear glass vial.
# Each vial was mixed with a stir bar on a magnetic stirrer for 2 hours at room temperature.
# Each vial was then checked every 1-2 hours to see if the solution became clear.
# [6] = methanol/water 15/85 (v/v), 37° C., pH 7, USP Apparatus II 75 rpm, PCT/US16/35993, cited from earlier work
# [7] = in Aluminum sulfate 0.1-0.2% in water, 7 days, RT
# [8] = in Ammonium lauryl sulfate 2% in water, 3 days, RT
# [9] = in Benzalkonium chloride (50%) 2% in water, 7 days & 21 days, RT
# [10] = in CARBOPOL ULTREZ 10 (with Ammonium hydroxide as neutralizer) 0.5% in water, 8 days & 21 days, RT
# [11] = in Castor Oil 100%, 24 hrs & 9 days, RT
# [12] = in Dimethicone, 1000 cSt 100%, 24 hrs & 6 days, RT
# [13] = in FOMBLIN HC04 100%, 4, 7 & 13 days, RT
# [14] = in Hydroxyethyl cellulose 1% in water, 7 days, RT
# [15] = in Hydroxypropyl methylcellulose 1% in water, 3 days, RT
# [16] = in Lecithin 1% in water, 24 hrs, RT
# [17] = in Light Mineral Oil NF 100%, 3 days, RT & 40 C.
# [18] = in Magnesium nitrate 5% in water, 3 days, RT
# [19] = in Mannitol 5% in water, 7 days, RT
# [20] = in Mineral Oil USP (heavy) 100%, 3 days, RT & 40 C
# [21] = in PEG 400 10% in water, 22 days, RT & 60 C.
# [22] = in Poloxamer 188 2% in water, 7 days, RT
# [23] = in Poloxamer 407 2% in water, 5 & 7 days, RT
# [24] = in Polyoxyl 40 Hydrogenated Castor Oil (KOLLIPHOR RH40) 1% in water, 6 days, RT
# [25] = in Polysorbate 80 0.5% in Saline, 7 days, RT & 60 C.
# [26] = in Polysorbate 80 0.5% in water, 22 days, RT & 60 C.
# [27] = in Povidone 1% in water, 7 days & 21 days, RT
# [28] = in Proline 3% in water, 7 days, RT
# [29] = in Purified Water 100%, 5 days, RT & 60 C.
# [30] = in ST-Cyclomethicone 5 NF 100%, 24 hrs & 13 days, RT
# [31] = in Saline 0.9% NaCl in water, 7 days, RT & 60 C.
# [32] = in Sodium lauryl sulfate 2% in water, 7 days, RT
# [33] = in Sodium phosphate monobasic 0.75% in water, 7 days, RT
# [34] = in Sorbitol 5% in water, 7 days, RT
# [35] = in Vitamin E TPGS 0.5% in water, 6 days, RT
# [36] = in Zinc acetate […] in water, 7 days, RT
compound,measurement,setting,value
CC(=O)O[C@H]1C(=O)[C@@]2(C)[C@H]([C@H](OC(=O)c3ccccc3)[C@]3(O)C[C@H](OC(=O)[C@H](O)[C@@H](NC(=O)c4ccccc4)c4ccccc4)C(C)=C1C3(C)C)[C@]1(OC(C)=O)CO[C@@H]1C[C@@H]2O [Paclitaxel nanoparticles lot used in formulas listed in Tabl] [listing 1 of 2 here],Specific surface area (SSA),[1],41.24 m^2/g
same,"Particle size, Mean",[2],0.861 μm
same,"Particle size, Median",[2],0.710 μm
same,"Particle size, Mode",[2],0.572 μm
same,Bulk density (not-tapped),[3],0.05 g/mL
CC(=O)O[C@H]1C(=O)[C@@]2(C)[C@H]([C@H](OC(=O)c3ccccc3)[C@]3(O)C[C@H](OC(=O)[C@H](O)[C@@H](NC(=O)c4ccccc4)c4ccccc4)C(C)=C1C3(C)C)[C@]1(OC(C)=O)CO[C@@H]1C[C@@H]2O [Paclitaxel nanoparticles lot used in formulas listed in Tabl] [listing 2 of 2 here],Specific surface area (SSA),[1],26.72 m^2/g
same,"Particle size, Mean",[2],0.83 μm
same,Bulk density (not-tapped),[3],0.09 g/mL
"CC(=O)O[C@H]1C(=O)[C@@]2(C)[C@H]([C@H](OC(=O)c3ccccc3)[C@]3(O)C[C@H](OC(=O)[C@H](O)[C@@H](NC(=O)c4ccccc4)c4ccccc4)C(C)=C1C3(C)C)[C@]1(OC(C)=O)CO[C@@H]1C[C@@H]2O [Paclitaxel nanoparticles, paclitaxel]",Crystal size (light microscopy),[4]; [7],> 5 μm
same,Needle shaped crystals observed? (visual observation by light microscopy),[4]; [7],Yes
same,Crystal size (light microscopy),[4]; [8],> 5 μm
same,Needle shaped crystals observed? (visual observation by light microscopy),[4]; [8],Yes
same,Crystal size (light microscopy),[4]; [9],< 5 μm
same,Needle shaped crystals observed? (visual observation by light microscopy),[4]; [9],No
same,Crystal size (light microscopy),[4]; [10],< 5 μm
same,Needle shaped crystals observed? (visual observation by light microscopy),[4]; [10],No
same,Crystal size (light microscopy),[4]; [11],< 5 μm
same,Needle shaped crystals observed? (visual observation by light microscopy),[4]; [11],No
same,Crystal size (light microscopy),[4]; [12],< 5 μm
same,Needle shaped crystals observed? (visual observation by light microscopy),[4]; [12],No
same,Crystal size (light microscopy),[4]; [13],< 5 μm
same,Needle shaped crystals observed? (visual observation by light microscopy),[4]; [13],No
same,Crystal size (light microscopy),[4]; [14],> 5 μm
same,Needle shaped crystals observed? (visual observation by light microscopy),[4]; [14],Yes
same,Crystal size (light microscopy),[4]; [15],> 5 μm
same,Needle shaped crystals observed? (visual observation by light microscopy),[4]; [15],Yes
same,Crystal size (light microscopy),[4]; [16],> 10 μm
same,Needle shaped crystals observed? (visual observation by light microscopy),[4]; [16],Yes
same,Crystal size (light microscopy),[4]; [17],< 5 μm
same,Needle shaped crystals observed? (visual observation by light microscopy),[4]; [17],No
same,Crystal size (light microscopy),[4]; [18],> 5 μm
same,Needle shaped crystals observed? (visual observation by light microscopy),[4]; [18],Yes
same,Crystal size (light microscopy),[4]; [19],> 5 μm
same,Needle shaped crystals observed? (visual observation by light microscopy),[4]; [19],Yes
same,Crystal size (light microscopy),[4]; [20],< 5 μm
same,Needle shaped crystals observed? (visual observation by light microscopy),[4]; [20],No
same,Crystal size (light microscopy),[4]; [21],> 5 μm
same,Needle shaped crystals observed? (visual observation by light microscopy),[4]; [21],Yes
same,Crystal size (light microscopy),[4]; [22],> 5 μm
same,Needle shaped crystals observed? (visual observation by light microscopy),[4]; [22],Yes
same,Crystal size (light microscopy),[4]; [23],< 5 μm
same,Needle shaped crystals observed? (visual observation by light microscopy),[4]; [23],No
same,Crystal size (light microscopy),[4]; [24],< 5 μm
same,Needle shaped crystals observed? (visual observation by light microscopy),[4]; [24],Yes
same,Crystal size (light microscopy),[4]; [25],> 5 μm
same,Needle shaped crystals observed? (visual observation by light microscopy),[4]; [25],Yes
same,Crystal size (light microscopy),[4]; [26],< 5 μm
same,Needle shaped crystals observed? (visual observation by light microscopy),[4]; [26],Yes
same,Crystal size (light microscopy),[4]; [27],< 5 μm
same,Needle shaped crystals observed? (visual observation by light microscopy),[4]; [27],Yes
same,Crystal size (light microscopy),[4]; [28],> 5 μm
same,Needle shaped crystals observed? (visual observation by light microscopy),[4]; [28],Yes
same,Crystal size (light microscopy),[4]; [29],> 5 μm
same,Needle shaped crystals observed? (visual observation by light microscopy),[4]; [29],Yes
same,Crystal size (light microscopy),[4]; [30],< 5 μm
same,Needle shaped crystals observed? (visual observation by light microscopy),[4]; [30],No
same,Crystal size (light microscopy),[4]; [31],> 10 μm
same,Needle shaped crystals observed? (visual observation by light microscopy),[4]; [31],Yes
same,Crystal size (light microscopy),[4]; [32],> 5 μm
same,Needle shaped crystals observed? (visual observation by light microscopy),[4]; [32],Yes
same,Crystal size (light microscopy),[4]; [33],> 5 μm
same,Needle shaped crystals observed? (visual observation by light microscopy),[4]; [33],Yes
same,Crystal size (light microscopy),[4]; [34],> 5 μm
same,Needle shaped crystals observed? (visual observation by light microscopy),[4]; [34],Yes
same,Crystal size (light microscopy),[4]; [35],< 5 μm
same,Needle shaped crystals observed? (visual observation by light microscopy),[4]; [35],Yes
same,Crystal size (light microscopy),[4]; [36],> 5 μm
same,Needle shaped crystals observed? (visual observation by light microscopy),[4]; [36],Yes
same,Crystal growth,[4]; in any of the hydrophobic carriers,did not grow
same,Crystal growth,"[4]; in aqueous solutions of benzalkonium chloride, CARBOPOL ULTREZ 10, or poloxamer 407",did not grow
"CC(=O)O[C@H]1C(=O)[C@@]2(C)[C@H]([C@H](OC(=O)c3ccccc3)[C@]3(O)C[C@H](OC(=O)[C@H](O)[C@@H](NC(=O)c4ccccc4)c4ccccc4)C(C)=C1C3(C)C)[C@]1(OC(C)=O)CO[C@@H]1C[C@@H]2O [Paclitaxel, paclitaxel]",Effect in skin inflammation models,skin inflammation models,"reduced inflammation, swelling, and erythema"
same,Paclitaxel Solubility at RT,"[5]; in Benzyl Alcohol, NF",17.02% w/w
same,Paclitaxel Solubility at RT,"[5]; in Diethylene Glycol Monoethyl Ether, NF (TRANSCUTOL P)",33.10% w/w
same,Paclitaxel Solubility at RT,[5]; in Diisopropyl Adipate (CERAPHYL 230),3.51% w/w
same,Paclitaxel Solubility at RT,[5]; in Dimethyl Isosorbide,38.22% w/w
same,Paclitaxel Solubility at RT,[5]; in Hexylene Glycol,4.07% w/w
same,Paclitaxel Solubility at RT,"[5]; in Isopropyl Myristate, NF",0.048% w/w
same,Paclitaxel Solubility at RT,"[5]; in Medium Chain Triglycerides, NF",0.32% w/w
same,Paclitaxel Solubility at RT,"[5]; in Mineral Oil, USP (heavy)",0.3 ppm
same,Paclitaxel Solubility at RT,"[5]; in Polyethylene Glycol 400, NF",22.30% w/w
same,Paclitaxel Solubility at RT,[5]; in Propylene Carbonate,4.74% w/w
same,Paclitaxel Solubility at RT,"[5]; in Propylene Glycol, USP",0.88% w/w
same,Paclitaxel Solubility at RT,"[5]; in Purified Water, USP",<0.05 ppm
same,Paclitaxel Solubility at RT,"[5]; in Purified Water, USP, listed as paclitaxel",less than 0.05 ppm
same,Paclitaxel Solubility at RT,"[5]; in Super Refined Oleic Acid, NF",0.041% w/w
same,Paclitaxel Solubility at RT,"[5]; in Super Refined Oleyl Alcohol, NF",0.38% w/w
CC(=O)O[C@@]12CO[C@@H]1C[C@H](O)[C@@]1(C)C(=O)[C@H](O)C3=C(C)[C@@H](OC(=O)[C@H](O)[C@@H](NC(=O)OC(C)(C)C)c4ccccc4)C[C@@](O)([C@@H](OC(=O)c4ccccc4)[C@H]21)C3(C)C [docetaxel nanoparticles produced by milling] [reference compound],"Dissolution rate, % dissolved in 30 minutes",[6]; listed as docetaxel nanoparticles made by milling,9%
"CC(=O)O[C@@]12CO[C@@H]1C[C@H](O)[C@@]1(C)C(=O)[C@H](O)C3=C(C)[C@@H](OC(=O)[C@H](O)[C@@H](NC(=O)OC(C)(C)C)c4ccccc4)C[C@@](O)([C@@H](OC(=O)c4ccccc4)[C@H]21)C3(C)C [docetaxel nanoparticles, docetaxel]","Dissolution rate, % dissolved in 30 minutes",[6],27%
